Results on 10 compounds are retold here after patent US12338256B2, “Aza-tetracyclic oxazepine compounds and uses thereof” (Genentech, Inc., priority 2022, dated 2025).

Read-outs that look alike come from different tables or passages of the source. A value given as a limit tells only on which side of the number the result lay.

One experiment has as its target KRAS G12D (Homo sapiens, UniProt P01116, G12D). In words: KRAS G12D LoEnz Biochemical Assay, BODIPY-GDP Exchange TR-FRET (Example 500). The following applies: read-out: KRas (G12D) GDP HTRF IC50. As to the method:
Example 500: KRAS G12D LoEnz Biochemical Assay, BODIPY-GDP Exchange TR-FRET. Biochemical compound potencies are assessed by evaluating inhibition of SOS1-mediated nucleotide exchange in KRAS G12D. In this assay, the SOS1-promoted exchange of fluorescently-labeled GDP (BOPIDY-GDP) is monitored by time-resolved fluorescence resonance energy transfer (TR-FRET). Compounds solubilized in DMSO are dispensed as concentration series into 384-well white assay plates. A preformed complex of biotin-tagged recombinant human KRAS (0.06 nM mutant G12D) and 0.06 nM terbium-labeled streptavidin (CisBIO) prepared in 10 uL/well assay buffer (20 mM HEPES, pH 7.5, 50 mM NaCl, 10 mM MgCl2, 0.01% Tween-20 and 1 mM dithiothreitol) is added and allowed to incubate for 10-minutes at room temperature. The reaction is initiated with the addition of 5 uL 300 nM recombinant human SOS1 and 300 nM BODIPY-GDP in assay buffer. After a 120-minute incubation, the fluorescence is measured with excitation at 337 nm and emission at 490 and 520 nm. The TR-FRET ratio is determined as the fluorescence at 520 nm divided by the fluorescence at 490 nm multiplied by 10,000. The results are normalized to percent inhibition based on control samples: DMSO (0% inhibition) and control compound at a concentration that inhibits completely (100% inhibition). The normalized TR-FRET results are plotted against compound concentration, and the data are fit to a 4-parameter Hill equation to determine the IC50 values.
A general note: TR-FRET usually uses a lanthanide donor and a delayed reading to cut background.

For experiment [1], the system named is AsPC-1 (homozygous mutant KRAS G12D human pancreatic cell line). In words: KRAS 3D-Cell Proliferation Assay, AsPC-1 (Example 503). The note with it: Homo sapiens, ASPC1, 168 h, AsPC-1 3D culture, 7 days, CellTiter-Glo 3D; read-out: Prolif AsPC-1 3D ATP IC50. Type of experiment: cell-based. An outline of the steps:
(§1)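 Luminescent ATP readout (CellTiter-Glo 3D, with mechanical mixing) measures growth of cells cultured in 3D after a 7-day compound exposure at 37° C. Percent inhibition is referenced to vehicle (DMSO) and 1 μM staurosporine controls, and IC50 comes from a four-parameter Hill fit.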
Background: ATP-based viability assays read luminescence as a measure of living cells.

Experiment [2] relates to HPAC (homozygous mutant KRAS G12D human pancreatic cell line). In words: KRAS 3D-Cell Proliferation Assay, HPAC (Example 503). It is filed as cell-based. The following applies: Homo sapiens, HPAC, 168 h, HPAC 3D culture, 7 days, CellTiter-Glo 3D; read-out: Prolif HPAC 3D ATP IC50. An outline of the steps:
as §1

In experiment [3] the test system is H1975 (KRAS wild type human lung adenocarcinoma cell line). In words: KRAS 3D-Cell Proliferation Assay, H1975 (Example 503). Type of experiment: cell-based. The note with it: Homo sapiens, NCI-H1975, 168 h, H1975 3D culture, 7 days, CellTiter-Glo 3D; read-out: Prolif H1975 3D ATP IC50. The essentials: as §1
Experiment [4] relates to PC-9 (KRAS wild type human lung adenocarcinoma cell line). In words: KRAS 3D-Cell Proliferation Assay, PC-9 (Example 503). The following applies: 168 h, PC-9 3D culture, 7 days, CellTiter-Glo 3D, read-out: Prolif PC9 3D ATP IC50. Type of experiment: cell-based. The essentials: as §1
The target of another experiment is KRAS WT (Homo sapiens, UniProt P01116). In words: KRAS WI Biochemical Assay, BODIPY-GDP Exchange TR-FRET (Example 501; 3 nM KRAS WT, 3 nM SOS1, 60-minute incubation). As to the method: Example 501: KRAS WI Biochemical Assay, BODIPY-GDP Exchange TR-FRET. Biochemical compound potencies are assessed by evaluating inhibition of SOS1-mediated nucleotide exchange in KRAS WT. In this assay, the SOS1-promoted exchange of fluorescently-labeled GDP (BOPIDY-GDP) is monitored by time-resolved fluorescence resonance energy transfer (TR-FRET). Compounds solubilized in DMSO are dispensed as concentration series into 384-well white assay plates, and 5 uL assay buffer (20 mM HEPES, pH 7.5, 50 mM NaCl, 10 mM MgCl2, 0.01% Tween-20 and 1 mM dithiothreitol) is added just prior to the start of the assay. A preformed complex of 3 nM biotin-tagged recombinant human KRAS WT and 0.3 nM terbium-labeled streptavidin (CisBIO) prepared in 5 uL/well assay buffer is added and allowed to incubate for 10-minutes at room temperature. The reaction is initiated with the addition of 5 uL 3 nM recombinant human SOS1 and 300 nM BODIPY-GDP in assay buffer. After a 60-minute incubation, the fluorescence is measured with excitation at 337 nm and emission at 490 and 520 nm. The TR-FRET ratio is determined as the fluorescence at 520 nm divided by the fluorescence at 490 nm multiplied by 10,000. The results are normalized to percent inhibition based on control samples: DMSO (0% inhibition) and control compound at a concentration that inhibits completely (100% inhibition). The normalized TR-FRET results are plotted against compound concentration, and the data are fit to a 4-parameter Hill equation to determine the IC50 values.

The mark [5] stands for this setting: SOS1-mediated BODIPY-GDP exchange TR-FRET.
Where [6] appears, read: SOS1-mediated BODIPY-GDP exchange TR-FRET, read-out: KRas HTRF IC50.
[7] abbreviates: SOS1-mediated BODIPY-GDP exchange, read-out: KRas(wt) GDP HTRF IC50.

Chain of KRAS G12D (P01116 1-188 isoform P01116-2 G12D): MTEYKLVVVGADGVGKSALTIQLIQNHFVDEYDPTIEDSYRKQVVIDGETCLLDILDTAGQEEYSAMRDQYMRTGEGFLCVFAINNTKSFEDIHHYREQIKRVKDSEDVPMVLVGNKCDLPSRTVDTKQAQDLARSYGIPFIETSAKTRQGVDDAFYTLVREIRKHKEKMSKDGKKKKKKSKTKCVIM
Chain of KRAS WT (P01116 1-188 isoform P01116-2): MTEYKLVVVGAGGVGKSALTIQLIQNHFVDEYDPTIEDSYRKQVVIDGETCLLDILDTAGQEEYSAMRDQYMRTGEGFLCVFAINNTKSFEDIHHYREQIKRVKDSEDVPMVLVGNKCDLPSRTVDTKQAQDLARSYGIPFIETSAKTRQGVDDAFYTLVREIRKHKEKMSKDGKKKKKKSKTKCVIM

One may read the IC50 as the midpoint of a concentration-inhibition curve. For the compound `Cc1cc(N)c(Cl)c(-c2nc3c4c(nc(OC[C@@]56CCCN5C[C@H](F)C6)nc4c2Cl)N2C[C@H]4CC[C@H](N4)[C@H]2[C@H](C)O3)c1C(F)(F)F` (single isomer, unassigned) [240 (atrop. 2)], the half-inhibitory concentration (IC50) was determined as 0.14 nM on KRAS G12D (setting [5]) and 1.5 nM in experiment [1].

As to `C#Cc1cccc2cc(O)cc(-c3nc4c5c(nc(OC[C@]67CCN6CC(F)(F)C7)nc5c3F)N3C[C@H]5CC[C@H](N5)[C@H]3[C@H](C)O4)c12` (single isomer, unassigned) [Compound 19], the IC50 at KRAS G12D (BODIPY-GDP exchange) turned out to be 0.08 nM; in experiment [1] it was 5.05 nM; in experiment [2] it was 3.31 nM; in experiment [3], 217 nM; in experiment [4] it was 8800 nM.

Turning to `Cc1cc(N)c(Cl)c(-c2nc3c4c(nc(OC[C@@]56CCCN5C[C@H](F)C6)nc4c2F)N2C[C@H]4CC[C@H](N4)[C@H]2[C@H](C)O3)c1C(F)(F)F` (single isomer, unassigned) [Compound 199], the IC50 on KRAS WT (setting [6]) was determined as 9.63 nM; on KRAS G12D (setting [5]) it was 0.17 nM; in experiment [1] it was 4.06 nM; in experiment [2] it was 0.98 nM; in experiment [3], 1050 nM.

Turning to `Cc1c(Cl)c(N)cc(-c2nc3c4c(nc(OC[C@@]56CCCN5C[C@H](F)C6)nc4c2F)N2C[C@H]4CC[C@H](N4)[C@H]2[C@H](C)O3)c1C(F)(F)F` (single isomer, unassigned) [Compound 200], the IC50 at KRAS WT (setting [6]) is 6.7 nM; at KRAS G12D (setting [5]), 0.1 nM; in experiment [2], 6.83 nM; in experiment [3], 593 nM.

Turning to `C[C@@H]1Oc2nc(-c3cc(O)cc4cccc(F)c34)c(F)c3nc(OC[C@@]45CCCN4C[C@H](F)C5)nc(c23)N2C[C@H]3CC[C@H](N3)[C@@H]12` [Compound 9, 5-fluoro-4-((5S,5aS,6S,9R)-1-fluoro-12-(((2R,7aS)-2-fluorotetrahydro-1H-pyrrolizin-7a(5H)-yl)methoxy)-5-methyl-5a,6,7,8,9,10-hexahydro-5H-4-oxa-3,10a,11,13,14-pentaaza-6,9-methanonaphtho[1,8-ab]heptalen-2-yl)naphthalen-2-ol], the IC50 at KRAS WT (setting [7]) stood at 6.51 nM; at KRAS G12D (BODIPY-GDP exchange) it was 0.057 nM; in experiment [1], 19.3 nM; in experiment [2], 11.6 nM; in experiment [3], 2020 nM; in experiment [4], 7790 nM.

For `Fc1c(-c2cccc3cccc(Cl)c23)nc2c3c(ncnc13)N1C[C@H]3CC[C@H](N3)[C@H]1CO2` [Compound 53, (5aS,6S,9R)-2-(8-Chloronaphthalen-1-yl)-1-fluoro-5a,6,7,8,9,10-hexahydro-5H-4-oxa-3,10a,11,13,14-pentaaza-6,9-methanonaphtho[1,8-ab]heptalene], the half-inhibitory concentration (IC50) at KRAS WT (setting [7]) is at least 200000 nM.

Turning to `Nc1nc2c(-c3nc4c5c(ncnc5c3F)N3C[C@H]5CC[C@H](N5)[C@H]3CO4)ccc(F)c2s1` [Compound 55, 7-fluoro-4-((5aS,6S,9R)-1-fluoro-5a,6,7,8,9,10-hexahydro-5H-4-oxa-3,10a,11,13,14-pentaaza-6,9-methanonaphtho[1,8-ab]heptalen-2-yl)benzo[d]thiazol-2-amine], the IC50 at KRAS WT (setting [7]) was at least 200000 nM; in experiment [1], at least 20000 nM; in experiment [4], 12800 nM.

Regarding `C[C@@H]1Oc2nc(-c3cc(N)nc4ccccc34)c(F)c3nc(OC[C@]45CCN4CC(F)(F)C5)nc(c23)N2C[C@H]3CC[C@H](N3)[C@@H]12` [Compound 79, 4-((5S,5aS,6S,9R)-12-(((R)-3,3-Difluoro-1-azabicyclo[3.2.0]heptan-5-yl)methoxy)-1-fluoro-5-methyl-5a,6,7,8,9,10-hexahydro-5H-4-oxa-3,10a,11,13,14-pentaaza-6,9-methanonaphtho[1,8-ab]heptalen-2-yl)quinolin-2-amine], the IC50 at KRAS G12D (BODIPY-GDP exchange) was 22.7 nM; in experiment [1], 4040 nM; in experiment [4], at least 20000 nM.

`Cc1nc(N)c(F)c(-c2nc3c4c(nc(OC[C@@]56CCCN5CC5(CC5(F)F)C6)nc4c2F)N2C[C@H]4CC[C@H](N4)[C@H]2[C@H](C)O3)c1C(F)(F)F` (stereo partly drawn) [Compound 221, 4-((5S,5aS,6S,9R)-12-(((7a′S)-2,2-Difluorodihydro-1′H,3′H-spiro[cyclopropane-1,2′-pyrrolizin]-7a′(5′H)-yl)methoxy)-1-fluoro-5-methyl-5a,6,7,8,9,10-hexahydro-5H-4-oxa-3,10a,11,13,14-pentaaza[6,9]methanonaphtho[1,8-ab]heptalene-2-yl)-3-fluoro-6-methyl-5-(trifluoromethyl)pyridin-2-amine]: the IC50 worked out at 9.95 nM at KRAS WT (setting [6]); 0.39 nM on KRAS G12D (setting [5]); 1.2 nM in experiment [1]; 1.45 nM in experiment [2]; 498 nM in experiment [3].

Take `Cc1c(F)c(N)cc(-c2nc3c4c(nc(OC[C@@]56CCCN5C[C@H](F)C6)nc4c2F)N2C[C@H]4CC[C@H](N4)[C@H]2[C@@H](C(F)(F)F)O3)c1C(F)(F)F` [Compound 246, 2-Fluoro-5-((5S,5aS,6S,9R)-1-fluoro-12-(((2R,7aS)-2-fluorotetrahydro-1H-pyrrolizin-7a(5H)-yl)methoxy)-5-(trifluoromethyl)-5a,6,7,8,9,10-hexahydro-5H-4-oxa-3,10a,11,13,14-pentaaza-6,9-methanonaphtho[1,8-ab]heptalene-2-yl)-3-methyl-4-(trifluoromethyl)aniline]: the IC50 was 311 nM at KRAS G12D (setting [5]), 2000 nM in experiment [2] and 20000 nM in experiment [3].
